Reference: the supplement of paper PMC10307832

Columns and labels:
Assay in all cases: relative viability (nuclei count vs DMSO), 5 days (fraction); higher = more cells survive
BMX-IN-1 = compound: C=CC(=O)Nc1cc(-n2c(=O)ccc3cnc4ccc(-c5ccc(NS(C)(=O)=O)cc5)cc4c32)ccc1C [BMX-IN-1]
Outline: (§1)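 Five library-drug doses spaced by √10 were pinned onto vehicle-anchored 1536-well plates of lung cancer cell lines that had been kept overnight at 37 °C. Cells went 5 days without medium change, then were fixed, permeabilised and Hoechst-stained together, imaged at 4× and counted by MetaXpress. Viability is the ratio of treated-well to vehicle-well nuclei, taken as a median over plates. Plates required control CV below 25% and at least one doubling.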

PAC-1 = compound: C=CCc1cccc(/C=N/NC(=O)CN2CCN(Cc3ccccc3)CC2)c1O [PAC-1]
Outline: as §1

Ibrutinib = compound: C=CC(=O)N1CCC[C@@H](n2nc(-c3ccc(Oc4ccccc4)cc3)c3c(N)ncnc32)C1 [Ibrutinib]
Outline: as §1

BMX-IN-1 + Dasatinib = compound: C=CC(=O)Nc1cc(-n2c(=O)ccc3cnc4ccc(-c5ccc(NS(C)(=O)=O)cc5)cc4c32)ccc1C [BMX-IN-1] + Cc1nc(Nc2ncc(C(=O)Nc3c(C)cccc3Cl)s2)cc(N2CCN(CCO)CC2)n1 [Dasatinib] (partner 0.075 µM)
Outline: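 Five library-drug doses in √10 steps were combined with a fixed anchor-drug dose, or a single drug was given alone, by pin tool to lung cancer cell lines in 1536-well plates the day after seeding. Nuclei were stained and counted after 5 days. Relative viability is the nuclei count in treated wells over that in vehicle wells, taken as the median of duplicate plates.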

Row | Cell Line | relative viability (BMX-IN-1; 0.02 µM) | relative viability (BMX-IN-1; 0.2 µM) | relative viability (BMX-IN-1; 0.6325 µM) | relative viability (BMX-IN-1; 2 µM) | relative viability (PAC-1; 0.02 µM) | relative viability (PAC-1; 0.06325 µM) | relative viability (PAC-1; 0.2 µM) | relative viability (PAC-1; 2 µM) | relative viability (Ibrutinib; 0.01581 µM) | relative viability (Ibrutinib; 0.05 µM) | relative viability (Ibrutinib; 0.1581 µM) | relative viability (Ibrutinib; 0.5 µM) | relative viability (BMX-IN-1 + Dasatinib; first compound 0.02 µM) | relative viability (BMX-IN-1 + Dasatinib; first compound 0.2 µM) | relative viability (BMX-IN-1 + Dasatinib; first compound 0.6325 µM) | relative viability (BMX-IN-1 + Dasatinib; first compound 2 µM) | relative viability (Ibrutinib; 0.005 µM)
1 | NCI-H1793 | 1.13 | 0.995 | 1.13 | 1.05 | 0.847 | 0.934 | 0.872 | 1.01 | 0.831 | 0.732 | 0.631 | 0.538 | 0.417 | 0.432 | 0.479 | 0.451 | 
2 | NCI-H1915 | 1.08 | 1.06 | 1.07 | 1.08 | 0.955 | 0.981 | 0.934 | 1.07 | 0.971 | 1.01 | 0.978 | 1.05 | 0.351 | 0.338 | 0.411 | 0.302 | 0.96
3 | NCI-H1944 | 1.07 | 1.08 | 1.18 | 0.947 | 0.964 | 0.947 | 0.902 | 1.02 | 0.851 | 0.858 | 0.772 | 0.832 | 0.203 | 0.188 | 0.222 | 0.206 | 0.887
4 | NCI-H1975 | 1.17 | 0.965 | 1.14 | 0.872 | 0.97 | 0.957 | 0.994 | 1.08 | 0.781 | 0.827 | 0.91 | 0.419 | 0.362 | 0.382 | 0.457 | 0.38 | 0.906
5 | NCI-H1993 | 1.01 | 1.09 | 0.973 | 0.882 | 0.911 | 0.986 | 0.891 | 0.963 | 0.822 |  | 0.733 | 0.61 | 0.659 | 0.703 | 0.479 | 0.634 | 0.617
6 | NCI-H2009 | 1.08 | 1.07 | 1.09 | 1.02 | 0.978 | 1.03 | 0.94 | 0.99 | 0.971 | 0.978 | 0.962 | 1.09 | 0.303 | 0.294 | 0.278 | 0.271 | 1.14
7 | NCI-H2023 | 1.37 | 1.19 | 1.13 | 1.08 | 0.973 | 0.919 | 0.905 | 1.01 | 0.849 | 0.891 | 1.03 | 0.943 | 0.767 | 0.637 | 0.667 | 0.682 | 0.89
8 | NCI-H2085 | 1.03 | 0.997 | 1 | 1.01 | 1.05 | 1.02 | 0.989 | 0.98 | 0.974 | 0.902 | 0.882 | 0.905 | 0.246 | 0.223 | 0.236 | 0.227 | 0.997
9 | NCI-H2087 | 1.03 | 1.14 | 1.14 | 1.15 | 0.872 | 1.06 | 0.929 | 1.04 | 0.931 | 1.19 |  | 0.99 | 1.25 | 0.931 | 1.03 | 0.926 | 1.13
10 | NCI-H2126 | 1.09 | 1.05 | 1.08 | 1.02 | 0.938 | 0.948 | 1.02 | 1.06 | 0.969 | 0.972 | 0.9 | 0.887 | 0.624 | 0.645 | 0.616 | 0.601 | 0.68
11 | NCI-H2170 | 1.14 | 1.05 | 1.05 | 1.02 | 1.02 | 0.978 | 0.99 | 0.962 | 0.85 | 0.803 | 0.939 | 0.462 | 0.609 | 0.634 | 0.67 | 0.586 | 0.678
12 | NCI-H2228 | 1.2 | 1.18 | 0.975 | 1.05 | 0.98 | 1.15 | 0.924 | 1.09 | 0.752 | 1.1 | 0.872 | 0.868 | 0.497 | 0.672 | 0.593 | 0.561 | 1.01
13 | NCI-H2342 | 1.04 | 1.03 | 1.06 | 0.939 | 1.09 | 0.91 | 0.872 | 1.15 | 0.875 | 0.888 | 0.842 | 0.823 | 0.31 | 0.326 | 0.307 | 0.327 | 0.655
14 | NCI-H2347 | 1.04 | 0.967 | 1.14 | 1.09 | 1.01 | 1.02 | 0.979 | 1.05 | 1.06 | 1.02 | 0.812 | 1.04 | 0.344 | 0.281 | 0.287 | 0.323 | 1.01
15 | NCI-H2405 | 0.982 | 1.01 | 1.09 | 1.04 | 1.04 | 1 | 1.01 | 1.09 |  | 0.832 | 0.713 | 0.973 | 0.225 | 0.501 | 0.223 | 0.19 | 0.924
16 | NCI-H3122 | 1.07 | 1.06 | 1.04 | 1.04 | 0.991 | 0.989 | 0.965 | 0.965 | 0.989 | 0.996 | 0.895 | 1 | 1.03 | 0.936 | 0.837 | 0.84 | 1.05
17 | PC-3 [JPC-3] | 1.08 | 1.12 | 1.11 | 1.06 | 1.06 | 1.08 | 1.05 | 1.03 | 0.97 | 0.906 | 0.912 | 0.638 | 1 | 1.19 | 1.07 | 0.943 | 1.03
18 | PC-14 | 1.12 | 1.06 | 1.22 | 1 | 1.03 | 1.03 | 0.995 | 0.988 | 0.918 | 0.952 | 1.02 | 0.571 | 0.313 | 0.227 | 0.339 | 0.279 | 1.08
19 | RERF-LC-KJ | 1.14 | 1.04 | 1.03 | 1.03 | 1.08 | 1 | 0.947 | 0.942 | 0.85 | 0.942 | 0.989 | 0.849 | 1.08 | 0.883 | 0.82 | 0.939 | 1.03
20 | SK-LU-1 | 1.22 | 1.23 | 1.16 | 1.1 | 1 | 1.02 | 0.975 | 0.999 | 0.954 | 0.987 | 1.02 |  | 0.22 | 0.174 | 0.169 | 0.171 | 0.944
21 | SW 900 | 0.971 | 0.886 | 0.911 | 1.09 | 0.766 | 1.02 | 0.815 | 0.792 | 0.693 | 0.873 | 0.708 | 0.845 | 0.568 | 0.835 | 0.521 | 0.714 | 0.578
22 | SW 1573 | 1.13 | 1.08 | 1.09 | 0.904 | 0.965 | 1.03 | 1.01 | 1.15 | 0.924 |  | 0.94 | 0.974 | 0.531 | 0.63 | 0.456 | 0.528 | 0.912
23 | UMC-11 | 1.11 | 1.1 | 1.09 | 1.03 | 1 | 0.969 | 1 | 1.01 | 0.931 | 1.01 | 0.937 | 0.922 | 0.542 | 0.591 | 0.549 | 0.475 | 0.75
